# Source: patent US10654808B2, “Tyrosine kinase inhibitor and pharmaceutical composition comprising same” (GUANGDONG RAYNOVENT BIOTECH CO., LTD., priority 2015, dated 2020)
# Experiments:
# FGFR1 = biological target: T1, FGFR1 (Homo sapiens, UniProt P11362); experiment: Z'-LYTE in vitro enzyme activity assay, FGFR1; type: biochemical; details: 25 μM ATP, 60 minutes, room temperature; read-out: IC50 detected by Z'-LYTE, FGFR1
# T1 construct: purchased Life technology
# Summary of the method: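 Z′-LYTE FRET assay with 1 nM FGFR1, 2 μM Tyr4 peptide and 25 μM ATP in HEPES pH 7.5 with Mg/Mn, 60 min at room temperature, then development 60 min at 23 °C. Compounds tested at 11 concentrations from 10 μM to 0.17 nM in 1% DMSO. IC50 from 4-parameter fit of inhibition.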
# HUVEC = experiment: CellTiter-Glo luminescent cell viability assay, HUVEC stimulated with hVEGF-165; type: cell-based; details: Homo sapiens, hVEGF-165 20 ng/ml, 72 hours, read-out: IC50 detected by CellTiter-Glo, HUVEC
# Method: The intracellular ATP changes were measured by CellTiter-Glo® Luminescent Cell Viability Assay. The IC50 value of the compounds was used as an index to evaluate the inhibitory effect of the compounds on HUVEC in vitro.
# HUVEC cell line (ATCC), EGM-2 BulletKit (Lonza), hVEGF-165 (Cell Signaling), trypsin (Invitrogen), DPBS (Hyclone), 384 cell plate (Greiner), 384 compound plate (Greiner), CO2 incubator (Thermo), centrifuge (Eppendorf), Vi-cell cell counter (Beckman Coulter), Bravo Automatic Liquid Workstation (Agilent), Envision (Perkin Elmer)
# B: Cell plating: HUVEC cells were resuspended with starved medium (only containing 2% FBS and 0.1% GA-1000) and diluted to a concentration of 20,000/mL. The diluted cells were added to a 384 plate (Greiner), 50 μl per well. The cell plates were placed in a 37° C., 5% CO2 incubator overnight.
# C: Drug addition: the test compounds were diluted 4 times to obtain a total of 10 doses at a final concentration of 10 uM to 0.038 nM, two parallel wells. The middle plate was added with 47.6 uL of starved medium per well. 2.4 μl of compounds was transferred from a gradient dilution compound plate to a middle plate and mixed well. 5 μl of liquid was transferred from the middle plate to a cell plate. Incubate for 1 hour at 37° C. in a 5% CO2 incubator, 5 μl of starved medium containing hVEGF-165 (the final concentration was 20 ng/ml) and Heparin (the final concentration was 1 ng/m) were added and incubated at 37° C. in a 5% CO2 incubator for 72 hours.
# D: After 72 hours, 30 μl of assay reagents was added and incubated at room temperature for 10-30 minutes, Envision was used to read the plate.
# The reading was converted into suppression rate (%) (Max−Sample)/(Max−Min)*100%. Parameter curve fitting (Model 205 in XLFIT5, iDBS) was used to measure to obtain IC50 data.
# VEGFR2 = biological target: T2, VEGFR2 (Homo sapiens, UniProt P35968); experiment: Z'-LYTE in vitro enzyme activity assay, VEGFR2; type: biochemical; details: 100 μM ATP, 60 minutes, room temperature; read-out: IC50 detected by Z'-LYTE, VEGFR2
# T2 construct: purchased Life technology
# Summary of the method: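 Reaction with 3 nM VEGFR2, 2 μM Tyr1 peptide and 100 μM ATP in HEPES pH 7.5/MgCl2/EGTA/BRIJ-35, 1% DMSO, 60 min at room temperature; development reagent then 60 min at 23° C. Compounds tested at 11 threefold dilutions, 10 μM–0.17 nM final, in duplicate; IC50 from 4-parameter fit of inhibition.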
# PDGFRB = biological target: T3, PDGFRB (Homo sapiens, UniProt P09619); experiment: Z'-LYTE in vitro enzyme activity assay, PDGFRB; type: biochemical; details: 100 μM ATP, 60 minutes, room temperature; read-out: IC50 detected by Z'-LYTE, PDGFRB
# T3 construct: purchased Millipore
# Summary of the method: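 Z′-LYTE FRET kinase assay using 40 nM PDGFRB, 2 μM Tyr4 peptide and 100 μM ATP in HEPES pH 7.5 with Mg2+/Mn2+ and 1% DMSO. The reaction ran 60 min at room temperature, followed by development for 60 min at 23 °C. IC50 values came from 4-parameter fits over 11 concentrations (10 μM–0.17 nM).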
# T3 sequence (P09619 33-1106): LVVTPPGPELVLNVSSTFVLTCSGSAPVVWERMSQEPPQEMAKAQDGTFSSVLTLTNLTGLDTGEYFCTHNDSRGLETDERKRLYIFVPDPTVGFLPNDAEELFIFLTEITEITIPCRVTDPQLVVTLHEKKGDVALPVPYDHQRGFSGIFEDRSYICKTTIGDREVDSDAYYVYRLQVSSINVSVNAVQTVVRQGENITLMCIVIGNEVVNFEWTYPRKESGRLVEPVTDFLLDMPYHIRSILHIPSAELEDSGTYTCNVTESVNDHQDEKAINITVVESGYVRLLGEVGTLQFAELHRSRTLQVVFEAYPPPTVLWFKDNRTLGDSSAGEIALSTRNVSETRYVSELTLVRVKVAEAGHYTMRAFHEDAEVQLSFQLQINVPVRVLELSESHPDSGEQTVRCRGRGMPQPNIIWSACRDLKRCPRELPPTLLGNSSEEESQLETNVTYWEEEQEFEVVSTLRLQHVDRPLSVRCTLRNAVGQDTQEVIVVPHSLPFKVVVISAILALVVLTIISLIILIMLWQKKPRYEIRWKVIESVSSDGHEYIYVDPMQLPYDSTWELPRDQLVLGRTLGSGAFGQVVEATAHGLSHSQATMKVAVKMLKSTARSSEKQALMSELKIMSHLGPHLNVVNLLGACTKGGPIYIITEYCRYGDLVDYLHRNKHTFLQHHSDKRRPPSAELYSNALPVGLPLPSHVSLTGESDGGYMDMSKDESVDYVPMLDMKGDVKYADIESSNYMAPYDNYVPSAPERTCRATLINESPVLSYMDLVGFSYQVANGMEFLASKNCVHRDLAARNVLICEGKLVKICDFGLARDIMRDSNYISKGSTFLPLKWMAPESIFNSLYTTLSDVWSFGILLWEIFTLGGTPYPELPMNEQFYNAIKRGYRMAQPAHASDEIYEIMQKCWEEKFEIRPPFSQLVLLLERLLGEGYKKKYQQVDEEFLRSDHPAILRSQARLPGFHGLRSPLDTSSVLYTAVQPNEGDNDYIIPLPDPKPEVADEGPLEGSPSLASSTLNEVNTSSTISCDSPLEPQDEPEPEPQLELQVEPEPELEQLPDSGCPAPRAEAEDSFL
# T2 sequence (P35968 20-1356): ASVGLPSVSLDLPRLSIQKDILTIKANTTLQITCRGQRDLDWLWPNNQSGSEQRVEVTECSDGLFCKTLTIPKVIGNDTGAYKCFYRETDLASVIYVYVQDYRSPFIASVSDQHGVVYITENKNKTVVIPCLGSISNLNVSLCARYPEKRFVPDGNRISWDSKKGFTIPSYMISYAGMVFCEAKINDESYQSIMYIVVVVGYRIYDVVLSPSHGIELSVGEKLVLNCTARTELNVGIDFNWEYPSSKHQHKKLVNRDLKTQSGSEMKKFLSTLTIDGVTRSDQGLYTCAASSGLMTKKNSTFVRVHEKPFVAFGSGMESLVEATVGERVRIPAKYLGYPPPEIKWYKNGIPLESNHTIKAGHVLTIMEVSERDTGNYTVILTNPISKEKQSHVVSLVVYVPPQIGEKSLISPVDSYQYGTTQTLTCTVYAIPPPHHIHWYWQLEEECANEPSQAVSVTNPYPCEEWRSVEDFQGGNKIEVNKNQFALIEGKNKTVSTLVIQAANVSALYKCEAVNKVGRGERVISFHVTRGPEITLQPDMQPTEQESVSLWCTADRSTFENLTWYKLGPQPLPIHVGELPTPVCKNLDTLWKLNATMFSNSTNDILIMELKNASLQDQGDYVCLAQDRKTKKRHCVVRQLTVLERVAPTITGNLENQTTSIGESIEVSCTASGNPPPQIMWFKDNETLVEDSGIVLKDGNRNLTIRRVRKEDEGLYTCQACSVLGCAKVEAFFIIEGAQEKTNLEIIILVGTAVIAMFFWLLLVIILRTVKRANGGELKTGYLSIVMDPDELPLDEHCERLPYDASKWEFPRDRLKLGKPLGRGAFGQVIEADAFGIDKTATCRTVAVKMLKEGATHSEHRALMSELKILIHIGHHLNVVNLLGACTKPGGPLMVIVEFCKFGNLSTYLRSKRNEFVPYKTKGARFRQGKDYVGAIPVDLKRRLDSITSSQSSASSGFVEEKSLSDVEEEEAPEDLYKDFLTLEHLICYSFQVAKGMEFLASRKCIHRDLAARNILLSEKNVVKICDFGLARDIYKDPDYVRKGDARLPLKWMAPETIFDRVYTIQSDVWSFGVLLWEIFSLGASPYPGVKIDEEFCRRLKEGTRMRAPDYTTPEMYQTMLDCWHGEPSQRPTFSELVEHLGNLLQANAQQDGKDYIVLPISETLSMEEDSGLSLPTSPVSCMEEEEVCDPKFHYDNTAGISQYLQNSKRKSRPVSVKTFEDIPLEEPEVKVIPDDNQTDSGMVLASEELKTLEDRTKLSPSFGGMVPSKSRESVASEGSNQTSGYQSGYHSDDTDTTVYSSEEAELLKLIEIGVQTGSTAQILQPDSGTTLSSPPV
# T1 sequence (P11362 22-822): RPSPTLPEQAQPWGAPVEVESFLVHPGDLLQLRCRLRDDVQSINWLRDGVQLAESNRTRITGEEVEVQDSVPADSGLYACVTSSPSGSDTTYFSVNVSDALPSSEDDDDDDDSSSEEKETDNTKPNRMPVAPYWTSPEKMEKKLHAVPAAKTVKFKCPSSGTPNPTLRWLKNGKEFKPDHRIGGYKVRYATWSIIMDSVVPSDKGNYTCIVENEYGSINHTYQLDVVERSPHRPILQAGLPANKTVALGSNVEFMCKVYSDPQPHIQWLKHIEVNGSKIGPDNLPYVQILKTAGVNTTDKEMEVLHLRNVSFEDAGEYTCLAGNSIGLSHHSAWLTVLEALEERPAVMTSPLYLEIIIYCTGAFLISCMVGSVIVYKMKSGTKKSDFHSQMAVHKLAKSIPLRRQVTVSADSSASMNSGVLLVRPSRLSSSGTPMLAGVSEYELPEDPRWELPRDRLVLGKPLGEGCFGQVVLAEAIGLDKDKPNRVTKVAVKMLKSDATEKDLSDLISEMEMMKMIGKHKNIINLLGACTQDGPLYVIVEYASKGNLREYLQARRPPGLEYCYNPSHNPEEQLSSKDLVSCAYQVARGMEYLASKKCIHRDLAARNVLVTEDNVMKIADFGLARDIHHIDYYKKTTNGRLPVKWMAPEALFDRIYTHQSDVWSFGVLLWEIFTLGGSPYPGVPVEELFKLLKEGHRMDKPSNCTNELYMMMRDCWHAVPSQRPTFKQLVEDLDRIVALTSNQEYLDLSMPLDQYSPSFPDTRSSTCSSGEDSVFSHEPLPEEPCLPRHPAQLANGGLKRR
IC50 (FGFR1),IC50 (VEGFR2),IC50 (PDGFRB),SMILES,IC50 (HUVEC)
0.05 to 0.2 µM,< 0.05 µM,0.05 to 0.2 µM,COc1cc2nccc(Oc3ccc(NC(=S)NCC(F)F)c(Cl)c3)c2cc1C(N)=O [Example 12],< 0.1 µM
< 0.05 µM,< 0.05 µM,0.05 to 0.2 µM,Cn1cnc(-c2ccc3c(Oc4ccc5c(C(=O)NC6CC6)coc5c4)ccnc3c2)c1 [Example 223],< 0.1 µM
0.05 to 0.2 µM,0.05 to 0.2 µM,0.2 to 1 µM,COc1cc2nccc(Oc3ccc(NC(=S)N(C)C)c(Cl)c3)c2cc1C(N)=O [Example 55],0.1 to 1 µM
0.2 to 1 µM,< 0.05 µM,0.05 to 0.2 µM,COc1cc2nccc(Oc3ccc(NC(=S)NCC4CC4)c(Cl)c3)c2cc1C(N)=O [Example 59],0.1 to 1 µM
< 0.05 µM,< 0.05 µM,0.05 to 0.2 µM,COc1cc2nccc(Oc3ccc(NC(=S)N4CCCC4)c(Cl)c3F)c2cc1C(N)=O [Example 98],0.1 to 1 µM
< 0.05 µM,< 0.05 µM,< 0.05 µM,[2H]C([2H])([2H])NC(=O)c1coc2cc(Oc3ccnc4cc(-c5cn(C)cn5)ccc34)ccc12 [Example 224],< 0.1 µM
,0.2 to 1 µM,,COc1cc2nccc(Oc3ccc(Nc4c(NC5CC5)c(=O)c4=O)c(Cl)c3)c2cc1C(N)=O [Example 130],0.1 to 1 µM
0.05 to 0.2 µM,< 0.05 µM,< 0.05 µM,CNC(=S)Nc1ccc(Oc2ccnc3cc(OC)c(C(N)=O)cc23)cc1Cl [Example 28],< 0.1 µM
,< 0.05 µM,,Cc1c(OC[C@H](C)O)cn2ncnc(Oc3ccc(NC(=O)NC4CC4)c(Cl)c3)c12 [Example 127],< 0.1 µM
0.05 to 0.2 µM,< 0.05 µM,0.05 to 0.2 µM,COc1cc2nccc(Oc3ccc(NC(=S)N4CC(F)(F)C4)c(Cl)c3F)c2cc1C(N)=O [Example 95],0.1 to 1 µM
0.2 to 1 µM,< 0.05 µM,< 0.05 µM,CCNC(=O)c1coc2cc(Oc3ccnc4cc(OC)c(C(N)=O)cc34)ccc12 [Example 210],< 0.1 µM
0.2 to 1 µM,< 0.05 µM,< 0.05 µM,COc1cc2nccc(Oc3ccc(NC(=S)Nc4cnn(C(C)C)c4)c(Cl)c3)c2cc1C(N)=O [Example 70],< 0.1 µM
0.05 to 0.2 µM,< 0.05 µM,0.2 to 1 µM,COc1cc2nccc(Oc3ccc4c(C(=O)NC5CC5)coc4c3)c2cc1C(N)=O [Example 185],< 0.1 µM
0.05 to 0.2 µM,< 0.05 µM,0.2 to 1 µM,COc1cc2nccc(Oc3ccc(NC(=S)N4CC[C@H](F)C4)c(Cl)c3F)c2cc1C(N)=O [Example 103],0.1 to 1 µM
0.2 to 1 µM,0.2 to 1 µM,0.2 to 1 µM,COc1cc2nccc(Oc3ccc4oc(C(=O)NC5CC5)cc4c3)c2cc1C(N)=O [Example 191],0.1 to 1 µM
0.2 to 1 µM,< 0.05 µM,< 0.05 µM,Cn1cnc(-c2ccc3c(Oc4ccc(NC(=S)NC5CC5)c(Cl)c4)ccnc3c2)c1 [Example 212],0.1 to 1 µM
< 0.05 µM,< 0.05 µM,0.05 to 0.2 µM,Cn1cnc(-c2ccc3c(Oc4ccc(NC(=O)NC5CC5)c(Cl)c4)ccnc3c2)c1 [Example 221],< 0.1 µM
< 0.05 µM,< 0.05 µM,0.05 to 0.2 µM,CCNC(=O)c1coc2cc(Oc3ccnc4cc(-c5cn(C)cn5)ccc34)ccc12 [Example 222],< 0.1 µM
0.2 to 1 µM,< 0.05 µM,< 0.05 µM,COc1cc2nccc(Oc3cc4occ(C(=O)NC5CC5)c4cc3F)c2cc1C(N)=O [Example 207],0.1 to 1 µM
0.2 to 1 µM,< 0.05 µM,0.05 to 0.2 µM,CCOCCCOc1cc2nccc(Oc3ccc(NC(=S)NC4CC4)c(Cl)c3)c2cc1C(N)=O [Example 58],0.1 to 1 µM

IC50 (FGFR1),IC50 (VEGFR2),IC50 (PDGFRB),SMILES,IC50 (HUVEC)
0.05 to 0.2 µM,0.05 to 0.2 µM,< 0.05 µM,[2H]C([2H])([2H])NC(=O)c1coc2cc(Oc3ccnc4cc(OC)c(C(N)=O)cc34)c(F)cc12 [Example 209],0.1 to 1 µM
0.05 to 0.2 µM,< 0.05 µM,< 0.05 µM,Cn1cnc(-c2ccc3c(Oc4ccc(NC(=O)N5CC(F)(F)C5)c(Cl)c4F)ccnc3c2)c1 [Example 218],0.1 to 1 µM
0.2 to 1 µM,0.2 to 1 µM,0.2 to 1 µM,COc1cc2nccc(Oc3ccc4oc(C(=O)N5CC(F)(F)C5)cc4c3)c2cc1C(N)=O [Example 190],0.1 to 1 µM
,0.2 to 1 µM,,COc1cc2nccc(Oc3ccc4nc(NC5CC5)sc4c3)c2cc1C(N)=O [Example 131],0.1 to 1 µM
0.2 to 1 µM,0.2 to 1 µM,0.2 to 1 µM,COc1cc2nccc(Oc3ccc(Nc4c(NCC(F)(F)F)c(=O)c4=O)c(Cl)c3)c2cc1C(N)=O [Example 138],
0.2 to 1 µM,0.2 to 1 µM,0.2 to 1 µM,O=C(Nc1ccc(Oc2ccnc3cc(-c4cn(-c5ccccc5)cn4)ccc23)c(F)c1Cl)NC1CC1 [Example 228],
0.2 to 1 µM,0.05 to 0.2 µM,0.05 to 0.2 µM,COc1cc2nccc(Oc3ccc(NC(=S)NCc4ccncc4)c(Cl)c3)c2cc1C(N)=O [Example 5],
0.2 to 1 µM,0.05 to 0.2 µM,0.2 to 1 µM,COc1cc2nccc(Oc3ccc(NC(=O)N4CC(O)C4)c(Cl)c3F)c2cc1C(N)=O [Example 121],
0.2 to 1 µM,0.2 to 1 µM,0.05 to 0.2 µM,COc1cc2nccc(Oc3ccc(NC(=S)NCc4ccccn4)c(Cl)c3)c2cc1C(N)=O [Example 11],
0.2 to 1 µM,< 0.05 µM,0.05 to 0.2 µM,COc1cc2nccc(Oc3ccc(NC(=S)NC4CC4)c(Cl)c3)c2cc1C(=O)NCC(F)F [Example 37],
0.2 to 1 µM,0.2 to 1 µM,< 0.05 µM,COc1cc2nccc(Oc3ccc(NC(=S)NCCN4CCOCC4)c(Cl)c3)c2cc1C(N)=O [Example 19],
0.2 to 1 µM,0.2 to 1 µM,0.2 to 1 µM,COc1cc2nccc(Oc3ccc(NC(=S)NC4CC4)c(Cl)c3)c2cc1C(=O)N(C)C [Example 47],
0.2 to 1 µM,0.05 to 0.2 µM,0.2 to 1 µM,COc1cc2nccc(Oc3ccc(NC(=S)NC4CC4)c(Cl)c3)c2cc1C(=O)NCC(F)(F)F [Example 38],
0.2 to 1 µM,0.2 to 1 µM,< 0.05 µM,COc1cc2nccc(Oc3ccc(Nc4c(Nc5cccc(C(F)(F)F)c5)c(=O)c4=O)c(Cl)c3)c2cc1C(N)=O [Example 155],
0.2 to 1 µM,0.2 to 1 µM,0.2 to 1 µM,COc1cc2nccc(Oc3ccc(CC(=O)N4CCCC4)cc3)c2cc1C(N)=O [Example 176],
0.2 to 1 µM,0.2 to 1 µM,0.2 to 1 µM,COc1cc2nccc(Oc3ccc(Nc4c(NCCc5ccccc5)c(=O)c4=O)c(Cl)c3)c2cc1C(N)=O [Example 154],
0.2 to 1 µM,0.2 to 1 µM,0.2 to 1 µM,COc1cc2nccc(Oc3ccc(NC(=S)NC4(C(F)(F)F)CC4)c(Cl)c3)c2cc1C(N)=O [Example 76],
0.2 to 1 µM,0.2 to 1 µM,< 0.05 µM,COc1cc2nccc(Oc3ccc(NC(=S)NCc4ccc(Cl)cc4)c(Cl)c3)c2cc1C(N)=O [Example 9],
0.2 to 1 µM,0.2 to 1 µM,0.2 to 1 µM,COc1cc2nccc(Oc3ccc4nc(NCC(C)C)sc4c3)c2cc1C(N)=O [Example 156],
0.2 to 1 µM,0.2 to 1 µM,0.05 to 0.2 µM,COc1cc2nccc(Oc3ccc4c(NC(=S)NC5CC5)nn(C)c4c3)c2cc1C(N)=O [Example 193],
